Laboratory results as given in patent US11384071B2, “Inhibitors of mechanotransduction to treat pain and modulate touch perception” (Max-Delbrück-Centrum für Molekulare Medizin in der …, priority 2016, dated 2022).

Key:
STOML3-FLAG = target: T1, STOML3-FLAG (Mus musculus, UniProt Q6PE84); test: dSTORM imaging of STOML3-FLAG cluster size at the plasma membrane of N2A cells; type: cell-based; conditions: pre-incubation three hours, 20 μM, vs vehicle
T1 construct: expressed in transfected cells; host or cells: N2A (Neuro2A)
T1 sequence (Q6PE84 whole entry): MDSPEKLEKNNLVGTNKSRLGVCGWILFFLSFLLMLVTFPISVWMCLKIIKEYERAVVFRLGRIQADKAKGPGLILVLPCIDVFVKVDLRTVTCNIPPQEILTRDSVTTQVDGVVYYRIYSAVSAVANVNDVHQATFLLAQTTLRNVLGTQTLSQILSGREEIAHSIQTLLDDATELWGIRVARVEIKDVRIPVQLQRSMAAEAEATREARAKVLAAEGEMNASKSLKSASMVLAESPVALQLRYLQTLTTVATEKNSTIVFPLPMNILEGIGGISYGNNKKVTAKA
Procedure: N2A cells were cultured on EHS-Laminin coated precision coverglass, thickness 0.17, then transfected with a plasmid encoding STOML3-FLAG. After overnight incubation, cells were treated for 3 hours with 20 μM compound, or DMSO as a control. Cells were then fixed (15 min, 4% PFA), permeabilized (0.05% TritonX 100, 5 min) and blocked (phosphate buffered saline (PBS) containing 10% fetal goat serum (FGS), 37° C., 1 hr). Cell were labeled with mouse anti-FLAG antibody (M2 clone, 1:100 in PBS containing 10% FGS). The secondary antibody was an Alexa647-conjugated, goat anti-mouse antibody (1:100 in PBS plus 10% FGS, 1 h, 37° C.). After staining, the samples were fixed again. […]
For analysis of STOML3 domain size, all reconstructed images were blinded and then from each imaged cell 100 individual dots were cropped (size: 20×20 pixels). A 2D-Gaussian fit was calculated using the Igor software (WaveMetrics, USA). […] After domain sizes had been determined for each cell, images were unblinded and then normalized against the average domain size for control cells prepared and imaged on the same day.
We next determined whether OB-1 and OB-2 modulation of STOML3 oligomerization state influences clustering of the protein in the plasma membrane. […]

[1] = tested on: mechanically gated currents in mechanoreceptors; test: Pillar array analysis of mechanically gated currents in DRG mechanoreceptors; type: cell-based, mouse; conditions: for sensitivity of mechanically gated currents in mechanoreceptors: acutely cultured mouse sensory neurons; for pillar deflections at which mechanically-gated currents are significantly inhibited: mechanoreceptors, FIG. 2e
Procedure: HEK-293 cells (passage numbers 4-20) were cultured in DMEM plus 10% fetal calf serum (FCS). Neuro2A (N2A) cells were cultured in DMEM/Opti-MEM media plus 10% FCS.—Sensory DRG neurons were isolated from 4 week old Mus musculus (C57Bl/6). Approximately 20 ganglia were collected from each mouse and individual cells were isolated by treating ganglia with […] collagenase IV for 30 min, followed by 1 ml of 0.05% trypsin, in PBS, for 5-20 min at 37° C. Enzyme-treated ganglia, in DMEM/F-12 media containing 10% Horse Serum (HS), were disrupted by gently passaging through a 20 G needle; cells were then collected by centrifugation (1000 rpm, 3 min), washed and finally re-suspended in DMEM/F-12, 10% HS media (at no point were neurotrophins added to the culture). Sensory neurons were then seeded on EHS-laminin coated substrate and cultured overnight. Experiments involving isolated sensory neurons were conducted within 24-36 hours of isolation of the cells.
Whole-cell, patch-clamp recordings were conducted as previously described 5-7, using patch pipettes with a tip resistance of 3-6 MΩ, filled with a solution of: 110 mM KCl, 10 mM NaCl, 1 mM MgCl2, 1 mM EGTA and 10 mM HEPES, adjusted to pH 7.3 with KOH. (For experiments on DRG neurons 10 mM QX-314 was added to the pipette to block voltage-gated sodium channels 8 Extracellular solutions contained 140 mM NaCl, 4 mM KCl, 2 mM CaCl2, 1 mM MgCl2, 4 mM glucose, 10 mM HEPES, adjusted to pH 7.4 with NaOH. A Zeiss 200 inverted microscope and an EPC-10 amplifier in combination with Patchmaster software was used, data was analyzed using Fitmaster software (HEKA Electronik GmbH, Germany). Pipette and membrane capacitance were compensated using the auto function of Patchmaster, series resistance was compensated by at least 60% to minimize voltage errors. Mechanical stimuli were applied using a polished glass probe driven by the MM3A micromanipulator (Kleindiek Nanotechnik, Germany). […]
Briefly, elastomeric pillar arrays of defined dimensions were cast in PDMS with an elasticity of 2 MPa. Cells cultured on these arrays were monitored using whole-cell patch-clamp whilst a glass probe was used to apply repeated deflections (of differing magnitudes) to an individual pilus directly beneath the cell. Images were obtained of the pilus before and after deflection and images were analyzed off-line to determine the exact deflection for each data point. […] Images were analyzed off-line using Igor software (WaveMetrics, USA). […] A power analysis was used to determine that moderate to strong effects between samples could be detected with a sample size >4. […] For quantitative analysis of mechanosensitivity we measured responses in the most sensitive sub-population of mechanoreceptors, previously defined as Typell mechanoreceptors (Poole et al., 2014).

Compound	STOML3-FLAG cluster size (STOML3-FLAG)	sensitivity of mechanically gated currents in mechanoreceptors [1]	pillar deflections at which mechanically-gated currents are significantly inhibited [1]
CCOC(=O)c1c(-c2ccccc2)oc2ccc(Oc3c([N+](=O)[O-])ncn3C)cc12 [OB-1, Ethyl 5-((1-methyl-4-nitro-1H-imidazol-5-yl)oxy)-2-phenylbenzofuran-3-carboxylate]	significantly reduced	substantially reduced	up to 250 nm
Cc1ccnc(NC(=O)CSc2nnc3c4ccccc4n(Cc4ccccc4)c3n2)c1 [OB-2]	significantly reduced	substantially reduced	less than 50 nm
